Experimental findings from ChEMBL document CHEMBL3826944, “Syringaresinol induces mitochondrial biogenesis through activation of PPARβ pathway in skeletal muscle cells” (Bioorg Med Chem Lett, 2016) are described below.

Each structure is given as a SMILES string. Activity calls are given as the source filed them. The calls are words filed in the database; no cut-off is given here.

Test [1] addresses T1, Peroxisome proliferator-activated receptor delta (Homo sapiens) (UniProt Q03181).
T1 sequence (whole entry): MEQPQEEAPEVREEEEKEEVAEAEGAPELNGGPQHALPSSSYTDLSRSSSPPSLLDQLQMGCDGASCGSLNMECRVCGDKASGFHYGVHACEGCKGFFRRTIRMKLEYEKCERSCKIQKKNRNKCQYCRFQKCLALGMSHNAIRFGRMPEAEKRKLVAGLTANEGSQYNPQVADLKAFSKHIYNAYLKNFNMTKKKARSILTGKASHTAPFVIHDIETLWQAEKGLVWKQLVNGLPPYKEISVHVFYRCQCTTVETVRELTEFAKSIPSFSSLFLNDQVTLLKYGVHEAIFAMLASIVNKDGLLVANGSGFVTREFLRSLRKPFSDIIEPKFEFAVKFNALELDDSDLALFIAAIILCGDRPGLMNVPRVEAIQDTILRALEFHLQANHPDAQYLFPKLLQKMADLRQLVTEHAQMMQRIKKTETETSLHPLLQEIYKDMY
The test is described as follows: (§1) Activation of PPARbeta-LBD (unknown origin) assessed as fluorescein-labeled coactivator C33 recruitment by TR-FRET assay.

Test [2] has as its target T2, Peroxisome proliferator-activated receptor delta (Homo sapiens, UniProt Q03181).
T2 sequence (Q03181 whole entry): T1 sequence (whole entry)
The description is as §1.

Test [3] addresses T2, Peroxisome proliferator-activated receptor delta. In words: Binding affinity to recombinant PPARbeta-LBD (254 to 441 residues) (unknown origin) expressed in Escherichia coli Rosetta2 cells by isothermal titration calorimetry. On the technique in general: ITC needs no label: the signal is the heat of the interaction.
Test [4] concerns C2C12. The test is described as follows: Induction of PPARbeta mRNA expression in mouse C2C12 myotubes at 50 uM after 24 hrs by qRT-PCR method relative to control. It counts as functional. On the technique in general: In qPCR the cycle at which signal appears reflects the starting amount.
The subject of test [5] is C2C12. The test is described as follows: Induction of PPARbeta protein expression in mouse C2C12 myotubes at 50 uM after 24 hrs by immunoblot method. It counts as functional, cell-based.
Test [6] deals with C2C12. The test is described as follows: Induction of PPARbeta mRNA expression in mouse C2C12 myotubes at <50 uM after 24 hrs by qRT-PCR method. Format: functional, cell-based.
The subject of test [7] is C2C12. The test is described as follows: Induction of PPARbeta protein expression in mouse C2C12 myotubes at <50 uM after 24 hrs by immunoblot method. Format: functional, cell-based. A general note: A western blot detects proteins with antibodies after separation by electrophoresis.
Test [8] has as its target T3, Peroxisome proliferator-activated receptor delta (Mus musculus) (UniProt P35396).
T3 sequence (whole entry): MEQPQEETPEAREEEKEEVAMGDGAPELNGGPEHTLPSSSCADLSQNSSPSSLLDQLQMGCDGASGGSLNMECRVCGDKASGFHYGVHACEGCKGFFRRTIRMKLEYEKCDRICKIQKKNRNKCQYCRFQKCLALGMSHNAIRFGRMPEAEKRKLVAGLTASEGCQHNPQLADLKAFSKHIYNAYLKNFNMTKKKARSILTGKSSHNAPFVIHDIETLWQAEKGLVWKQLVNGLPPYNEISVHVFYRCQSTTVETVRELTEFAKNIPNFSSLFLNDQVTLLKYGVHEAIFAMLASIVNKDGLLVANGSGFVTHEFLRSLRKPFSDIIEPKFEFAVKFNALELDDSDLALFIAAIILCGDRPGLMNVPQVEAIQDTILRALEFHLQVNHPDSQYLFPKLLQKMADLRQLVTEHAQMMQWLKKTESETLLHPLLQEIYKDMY
In words: Activation of PPARbeta in mouse C2C12 myotubes assessed as increase in PGC-1alpha mRNA level at 10 to 25 uM after 24 hrs by qRT-PCR method.

Test [9] deals with T3, Peroxisome proliferator-activated receptor delta (Mus musculus). In words: Activation of PPARbeta in mouse C2C12 myotubes assessed as increase in PGC-1alpha protein expression at 10 to 25 uM after 24 hrs by immunoblot method.
Test [10] relates to C2C12. The test is described as follows: Induction of mitochondrial biogenesis in mouse C2C12 myotubes assessed as increase in mitochondrial DNA content at 25 to 50 uM after 24 hrs by qRT-PCR method. It counts as functional, cell-based.
In test [11] the test system is C2C12. In words: Induction of mitochondrial biogenesis in mouse C2C12 myotubes assessed as increase in mitochondrial density at 25 uM after 24 hrs by Mitotracker Green staining based fluorescence microscopic analysis relative to control. It counts as functional.
In test [12] the test system is C2C12. In words: Induction of mitochondrial biogenesis in mouse C2C12 myotubes assessed as increase in mitochondrial density at 50 uM after 24 hrs by Mitotracker Green staining based fluorescence microscopic analysis relative to control. Format: functional.
Test [13] has as its system C2C12. In words: Upregulation of PPARbeta protein expression in PPARbeta siRNA transfected mouse C2C12 myotubes at 50 uM after 24 hrs by immunoblot method. It counts as functional, cell-based.
In test [14] the test system is C2C12. The test is described as follows: Upregulation of PGC1-alpha protein expression in PPARbeta siRNA transfected mouse C2C12 myotubes at 50 uM after 24 hrs by immunoblot method relative to control. It counts as functional, cell-based.
Test [15] concerns C2C12. In words: Upregulation of CPT1 protein expression in PPARbeta siRNA transfected mouse C2C12 myotubes at 50 uM after 24 hrs by immunoblot method relative to control. Format: functional, cell-based.
For test [16], the system named is C2C12. In words: Upregulation of UCP2 protein expression in PPARbeta siRNA transfected mouse C2C12 myotubes at 50 uM after 24 hrs by immunoblot method relative to control. It counts as functional, cell-based.
Test [17] relates to C2C12. In words: Induction of mitochondrial DNA content in PPARbeta siRNA transfected mouse C2C12 myotubes at 50 uM after 24 hrs by qRT-PCR method. It counts as functional, cell-based.
Test [18] concerns C2C12. In words: Induction of mitochondrial density in PPARbeta siRNA transfected mouse C2C12 myotubes at 50 uM after 24 hrs by Mitotracker Green staining based fluorescence microscopic analysis. Format: functional, cell-based.
Test [19] deals with C2C12. In words: Induction of SIRT1 protein expression in mouse C2C12 myotubes at 50 uM after 24 hrs by immunoblot method. Format: functional, cell-based.
The species named for test [20] is Mus musculus. In words: Activation of AMPK in mouse C2C12 myotubes assessed as increase in expression of phosphorylated AMPK at Thr-172 residue at 50 uM after 24 hrs by immunoblot method.
Test [21] relates to C2C12. The test is described as follows: Induction of mitochondrial DNA content in scramble siRNA transfected mouse C2C12 myotubes at 50 uM after 24 hrs by qRT-PCR method. Format: functional, cell-based.
Test [22] concerns C2C12. In words: Induction of mitochondrial density in scramble siRNA transfected mouse C2C12 myotubes at 50 uM after 24 hrs by Mitotracker Green staining based fluorescence microscopic analysis. Format: functional, cell-based.
Test [23] deals with C2C12. The test is described as follows: Upregulation of PPARbeta protein expression in PPARbeta siRNA transfected mouse C2C12 myotubes at 1 uM after 24 hrs by immunoblot method. Format: functional, cell-based.
The subject of test [24] is C2C12. In words: Upregulation of PGC1-alpha protein expression in PPARbeta siRNA transfected mouse C2C12 myotubes at 1 uM after 24 hrs by immunoblot method relative to control. It counts as functional, cell-based.
Test [25] relates to C2C12. In words: Upregulation of CPT1 protein expression in PPARbeta siRNA transfected mouse C2C12 myotubes at 1 uM after 24 hrs by immunoblot method relative to control. Format: functional, cell-based.
Test [26] concerns C2C12. The test is described as follows: Upregulation of UCP2 protein expression in PPARbeta siRNA transfected mouse C2C12 myotubes at 1 uM after 24 hrs by immunoblot method relative to control. Format: functional, cell-based.
For test [27], the system named is C2C12. The test is described as follows: Induction of SIRT1 protein expression in mouse C2C12 myotubes at 1 uM after 24 hrs by immunoblot method. It counts as functional, cell-based.
Test [28] is filed under the species Mus musculus. In words: Activation of AMPK in mouse C2C12 myotubes assessed as increase in expression of phosphorylated AMPK at Thr-172 residue at 1 uM after 24 hrs by immunoblot method.

The EC50 is the concentration needed to bring the measured effect to its halfway point. A word on the Kd: it is a measure of binding affinity in units of concentration.

As to `COc1cc([C@H]2OC[C@H]3[C@@H]2CO[C@@H]3c2cc(OC)c(O)c(OC)c2)cc(OC)c1O` [SYRINGARESINOL], the Activity result in [1] was “Dose-dependent effect”; in test [10] it was “Dose-dependent effect”; in test [11], 14%; in test [12] it was 18%. The EC50 in [2] was determined as 18.1 µM. Besides, the Kd in test [3] stood at 27.6 µM. Besides, in test [4], the “fold change (FC)” value is more than 2. Also, the result in test [5], in test [8], in test [9], in test [21] and in test [22] was Active. Besides, the result in test [6], in [7], in test [13], in [14], in test [15] and in test [16] was inactive. Further, the result in [17], in test [18], in test [19] and in test [20] was inactive.
Take `Cc1cc(SCc2sc(-c3ccc(C(F)(F)F)c(F)c3)nc2C)ccc1OCC(=O)O`: the outcome in test [23], in test [24], in test [25] and in [26] was inactive. In addition, the outcome in [27] and in test [28] was Active.
